This experiment has as its target T1, Human BCL-XL protein (N-terminal HiBiT tagged BCL-XL in HT1080 cells) (Homo sapiens, UniProt Q07817).
T1 construct: expressed in transfected cells; host or cells: HT-1080 (ATCC CCL-121), stably transduced with lentivirus pLV-UBC-N-HiBiT-BCL-XL-PGK-puro and selected with puromycin
The experiment can be described thus: HiBiT based degradation assay. In kind it is cell-based. Conditions: HT1080 cells expressing HiBiT-BCL-XL; for DC50: BCL-XL degradation. The source says: Human BCL-XL protein coding open reading frame fused with N-terminal HiBiT coding sequence was synthesized from Integrated DNA Technologies (IDT). Next, N-HiBiT-BCL-XL sequence was cloned into pLV-UBC-PGK-Puro, a lentivirus plasmid purchased from Vectorbuilder, to generate pLV-UBC-N-HiBiT-BCL-XL-PGK-puro. Lentiviral particles were generated from Lenti-X™ 293T cells (Clontech) by co-transfection of pLV-UBC-N-HiBiT-BCL-XL-PGK-puro plasmids and lentiviral packaging plasmid mix (Cellecta). HT-1080 [HT1080](ATCC CCL-121) cells were infected with the lentivirus, and HT1080 cells stably integrated with the lentiviral vectors were established by incubation with 1 μg/mL puromycin (Thermofisher).
HT1080 cells expressing N-terminal HiBiT tagged BCL-XL were dispensed into a 384-well plate pre-spotted with compounds at varying concentrations. Three thousand cells were seeded into each well in 40 μL of RPMI 1640 media. […] After incubation, luminescence was read on a PHERAstar FSX Plate Reader (BMG). BCL-XL degradation at each indicated concentration was normalized with the DMSO control. The BCL-XL degradation curves were plotted using a four-parameter logistic model. For compounds displaying hook effects, the curve fitting was performed using the bottom point of the hook curves (i.e., the point of Ymin) as the bottom plateau to calculate EC50.

[1] abbreviates: BCL-XL degradation normalized with DMSO control, 24 h.

Consider 19 compounds from patent publication US20240238423A9, “TETRAHYDROISOQUINOLINE HETEROBIFUNCTIONAL BCL-XL DEGRADERS” (Treeline Biosciences, Inc., priority 2022, published 2024).

Where two headings read alike, the source gives them in different places.

T1 sequence (Q07817 whole entry): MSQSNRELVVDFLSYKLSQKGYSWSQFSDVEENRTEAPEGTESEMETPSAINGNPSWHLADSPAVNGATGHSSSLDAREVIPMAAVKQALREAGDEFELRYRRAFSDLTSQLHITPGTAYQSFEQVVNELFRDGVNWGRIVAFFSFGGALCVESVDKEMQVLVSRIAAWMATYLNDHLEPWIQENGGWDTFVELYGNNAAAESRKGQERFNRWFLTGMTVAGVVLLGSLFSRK

As for `Cc1c(OCCC[C@@H]2CCCN(CC(=O)Nc3cccc4c(C5CCC(=O)NC5=O)nn(C)c34)C2)cccc1-c1ccc(N2CCc3cccc(C(=O)Nc4nc5ccccc5s4)c3C2)nc1C(=O)O` (single isomer, unassigned) [Compound 210a], the “Ymin (24 h)” value under setting [1] was “B (50% ≤ Ymin < 70%)”. The DC50 (24 h, read-out: EC50 (24 h)) is less than 100 nM.

Turning to `Cc1c(OCCC[C@H]2CCCN(CC(=O)Nc3cccc4c(C5CCC(=O)NC5=O)nn(C)c34)C2)cccc1-c1ccc(N2CCc3cccc(C(=O)Nc4nc5ccccc5s4)c3C2)nc1C(=O)O` (single isomer, unassigned) [Compound 210b], for the setting “BCL-XL degradation normalized with DMSO control, 6 h”, the “Ymin (6 h)” value is on record as “C (Ymin ≥ 70%)”. Besides, the “Ymin (24 h)” value under setting [1] is “C (Ymin ≥ 70%)”. The DC50 reads like this: (6 h, read-out: EC50 (6 h)) 1000 to 10000 nM; (24 h, read-out: EC50 (24 h)) less than 100 nM.

Consider `Cc1c(OC[C@H]2CCC3(CCN(CC(=O)Nc4ccc5c(C6CCC(=O)NC6=O)nn(C)c5c4)CC3)C2)cccc1-c1ccc(N2CCc3cccc(C(=O)Nc4nc5ccccc5s4)c3C2)nc1C(=O)O` (single isomer, unassigned) [Compound 262a], for which the “Ymin (24 h)” value under setting [1] was “A (Ymin < 50%)”. Where the note is “24 h, read-out: EC50 (24 h)”, the DC50 is less than 100 nM.

Take `Cc1c(OC[C@@H]2CCC3(CCN(CC(=O)Nc4ccc5c(C6CCC(=O)NC6=O)nn(C)c5c4)CC3)C2)cccc1-c1ccc(N2CCc3cccc(C(=O)Nc4nc5ccccc5s4)c3C2)nc1C(=O)O` (single isomer, unassigned) [Compound 262b]: the “Ymin (24 h)” value under setting [1] was “A (Ymin < 50%)”. For the same compound, the DC50 (24 h, read-out: EC50 (24 h)) is less than 100 nM.

Consider `Cc1c(OC[C@H](C)CC2CCN(CC(=O)Nc3ccc4c(C5CCC(=O)NC5=O)nn(C)c4c3)CC2)cccc1-c1ccc(N2CCc3cccc(C(=O)Nc4nc5ccccc5s4)c3C2)nc1C(=O)O` (single isomer, unassigned) [Compound 263a], for which the “Ymin (24 h)” value under setting [1] is reported as “B (50% ≤ Ymin < 70%)”. Also, the DC50 (24 h, read-out: EC50 (24 h)) is less than 100 nM.

As for `Cc1c(OC[C@@H](C)CC2CCN(CC(=O)Nc3ccc4c(C5CCC(=O)NC5=O)nn(C)c4c3)CC2)cccc1-c1ccc(N2CCc3cccc(C(=O)Nc4nc5ccccc5s4)c3C2)nc1C(=O)O` (single isomer, unassigned) [Compound 263b], under setting [1], the “Ymin (24 h)” value is on record as “A (Ymin < 50%)”. For the same compound, the DC50 (24 h, read-out: EC50 (24 h)) is less than 100 nM.

`Cc1cc(OCC[C@@H](C)C2CCN(CC(=O)Nc3ccc4c(C5CCC(=O)NC5=O)nn(C)c4c3)CC2)ccc1-c1ccc(N2CCc3cccc(C(=O)Nc4nc5ccccc5s4)c3C2)nc1C(=O)O` (single isomer, unassigned) [Compound 266a]: the “Ymin (24 h)” value under setting [1] is on record as “A (Ymin < 50%)”. The DC50 (24 h, read-out: EC50 (24 h)) was less than 100 nM.

Take `Cc1cc(OCC[C@H](C)C2CCN(CC(=O)Nc3ccc4c(C5CCC(=O)NC5=O)nn(C)c4c3)CC2)ccc1-c1ccc(N2CCc3cccc(C(=O)Nc4nc5ccccc5s4)c3C2)nc1C(=O)O` (single isomer, unassigned) [Compound 266b]: under setting [1], the “Ymin (24 h)” value was “A (Ymin < 50%)”. Also, the DC50 (24 h, read-out: EC50 (24 h)) is less than 100 nM.

In the case of `Cc1c(O[C@H]2CCC3(CCN(CC(=O)Nc4ccc5c(C6CCC(=O)NC6=O)nn(C)c5c4)CC3)C2)cccc1-c1ccc(N2CCc3cccc(C(=O)Nc4nc5ccccc5s4)c3C2)nc1C(=O)O` (single isomer, unassigned) [Compound 268a], the “Ymin (24 h)” value under setting [1] is listed as “A (Ymin < 50%)”. The DC50 (24 h, read-out: EC50 (24 h)) was less than 100 nM.

For `Cc1c(O[C@@H]2CCC3(CCN(CC(=O)Nc4ccc5c(C6CCC(=O)NC6=O)nn(C)c5c4)CC3)C2)cccc1-c1ccc(N2CCc3cccc(C(=O)Nc4nc5ccccc5s4)c3C2)nc1C(=O)O` (single isomer, unassigned) [Compound 268b], under setting [1], the “Ymin (24 h)” value is “A (Ymin < 50%)”. Where the note is “24 h, read-out: EC50 (24 h)”, the DC50 was less than 100 nM.

Consider `Cc1cc(OC[C@H](C)CC2CCN(CC(=O)Nc3ccc4c(C5CCC(=O)NC5=O)nn(C)c4c3)CC2)ccc1-c1ccc(N2CCc3cccc(C(=O)Nc4nc5ccccc5s4)c3C2)nc1C(=O)O` (single isomer, unassigned) [Compound 271a], for which the “Ymin (24 h)” value under setting [1] is “A (Ymin < 50%)”. For the same compound, the DC50 (24 h, read-out: EC50 (24 h)) was less than 100 nM.

Turning to `Cc1c(OCC[C@@H]2CCC3(CCN(CC(=O)Nc4ccc5c(C6CCC(=O)NC6=O)nn(C)c5c4)CC3)C2)cccc1-c1ccc(N2CCc3cccc(C(=O)Nc4nc5ccccc5s4)c3C2)nc1C(=O)O` (single isomer, unassigned) [Compound 272b, 6-(8-(benzo[d]thiazol-2-ylcarbamoyl)-3,4-dihydro-isoquinolin-2(1 h)-yl)-3-(3-(2-((2r)-8-(2-((3-(2,6-dioxopiperidin-3-yl)-1-methyl-1 h-indazol-6-yl)amino)-2-oxoethyl)-8-azaspiro[4.5]decan-2-yl)ethoxy)-2-methylphenyl)picolinic acid], under setting [1], the “Ymin (24 h)” value is given as “A (Ymin < 50%)”. Moreover, the DC50 (24 h, read-out: EC50 (24 h)) was less than 100 nM.

With `Cc1c(O[C@H]2CC[C@H](CC[C@H](C)N3CCN(c4ccc5c(C6CCC(=O)NC6=O)nn(C)c5c4)CC3)CC2)cccc1-c1ccc(N2CCc3cccc(C(=O)Nc4nc5ccccc5s4)c3C2)nc1C(=O)O` (single isomer, unassigned) [Compound 281a], under setting [1], the “Ymin (24 h)” value is “A (Ymin < 50%)”. Also, for the setting “24 h, read-out: EC50 (24 h)”, the DC50 was less than 100 nM.

For `Cc1c(O[C@H]2CC[C@H](CC[C@@H](C)N3CCN(c4ccc5c(C6CCC(=O)NC6=O)nn(C)c5c4)CC3)CC2)cccc1-c1ccc(N2CCc3cccc(C(=O)Nc4nc5ccccc5s4)c3C2)nc1C(=O)O` (single isomer, unassigned) [Compound 281b], under setting [1], the “Ymin (24 h)” value was “A (Ymin < 50%)”. For the same compound, the DC50 (24 h, read-out: EC50 (24 h)) was less than 100 nM.

Regarding `Cc1c(O[C@H]2CC[C@H](C[C@@H](C)CN3CCN(c4ccc5c(C6CCC(=O)NC6=O)nn(C)c5c4)CC3)CC2)cccc1-c1ccc(N2CCc3cccc(C(=O)Nc4nc5ccccc5s4)c3C2)nc1C(=O)O` (single isomer, unassigned) [Compound 282a], the “Ymin (24 h)” value under setting [1] is reported as “A (Ymin < 50%)”. The DC50 (24 h, read-out: EC50 (24 h)) is less than 100 nM.

For `Cc1c(O[C@H]2CC[C@H](C[C@H](C)CN3CCN(c4ccc5c(C6CCC(=O)NC6=O)nn(C)c5c4)CC3)CC2)cccc1-c1ccc(N2CCc3cccc(C(=O)Nc4nc5ccccc5s4)c3C2)nc1C(=O)O` (single isomer, unassigned) [Compound 282b, 6-(8-(benzo[d]thiazol-2-ylcarbamoyl)-3,4-dihydroisoquinolin-2(1H)-yl)-3-(3-(((1S,4r)-4-((2S*)-3-(4-(3-(2,6-dioxopiperidin-3-yl)-1-methyl-1H-indazol-6-yl)piperazin-1-yl)-2-methylpropyl)cyclohexyl)oxy)-2-methylphenyl)picolinic acid], the “Ymin (24 h)” value under setting [1] is recorded as “A (Ymin < 50%)”. The DC50 (24 h, read-out: EC50 (24 h)) is less than 100 nM.

With `Cc1c(O[C@H]2CC[C@H](CC[C@H](C)N3CCN(c4cccc5c(C6CCC(=O)NC6=O)nn(C)c45)CC3)CC2)cccc1-c1ccc(N2CCc3cccc(C(=O)Nc4nc5ccccc5s4)c3C2)nc1C(=O)O` (single isomer, unassigned) [Compound 283a], under setting [1], the “Ymin (24 h)” value is “A (Ymin < 50%)”. Further, the DC50 (24 h, read-out: EC50 (24 h)) was less than 100 nM.

Consider `Cc1c(O[C@H]2CC[C@H](CC[C@@H](C)N3CCN(c4cccc5c(C6CCC(=O)NC6=O)nn(C)c45)CC3)CC2)cccc1-c1ccc(N2CCc3cccc(C(=O)Nc4nc5ccccc5s4)c3C2)nc1C(=O)O` (single isomer, unassigned) [Compound 283b], for which, under setting [1], the “Ymin (24 h)” value was “A (Ymin < 50%)”. For the same compound, the DC50 (24 h, read-out: EC50 (24 h)) was less than 100 nM.

`Cc1c(O[C@H]2CC[C@H](C[C@H](C)CN3CCN(c4cccc5c(C6CCC(=O)NC6=O)nn(C)c45)CC3)CC2)cccc1-c1ccc(N2CCc3cccc(C(=O)Nc4nc5ccccc5s4)c3C2)nc1C(=O)O` (single isomer, unassigned) [Compound 284a]: the “Ymin (24 h)” value under setting [1] is given as “A (Ymin < 50%)”. Moreover, the DC50 (24 h, read-out: EC50 (24 h)) is less than 100 nM.
